From patent publication US9744263B2, “Bone tissue implant comprising strontium ions” (ASTRA TECH AB, priority 2007, dated 2017)

Experiments:
Format in all cases: cell-based, human
MG-63 cells [1] = assay: ALP production on reference surfaces; details: 0.5 mM strontium on reference surface 1, after 7 days of cell culture
Procedure: (§1) At harvest, the cell culture medium was analysed with respect to the ALP content. The intracellular ALP was measured by cell lysis according to the instructions of the manufacturer (SenzoLyte™ pNPP Alkaline Phosphatase Assay Kit Colorimetric BioSite, Sweden). The absorption was set at 405 nm by an automatic plate reader (Vmax, Molecular Device, UK). By comparing the optical density of the samples with the standard provided with the kit, the ALP concentrations could be determined. The instructions from the manufacturer were followed (BioSite, Sweden).
The production of ALP on reference surface 1 comprising a concentration of 0.5 mM strontium was compared with unstimulated reference surfaces 1 and 2.

MG-63 cells [2] = assay: MG-63 proliferation on reference surfaces with strontium (NucleoCounter); details: 0.5 mM strontium on reference surface 1, 7 days, compared to unstimulated reference surfaces 1 and 2
Procedure: Sterilized (β-radiation) Ti coins with reference surfaces 1 and 2, respectively were placed in 24 well plates. MG-63 cells were subcultured onto the coins in the 24 well plates at a plating density of 10 000 cells/cm^2, in total 20 000 cells/well. Sterile filtered Sr(NO3)2 at final concentrations of 5 mM and 0.5 mM (pH 5.2) was added to the respective wells. Untreated cells were used as controls. Cells were cultured for 7 days at a temperature of 37° C. in an atmosphere of 5% CO2 and 100% humidity.
The total number of cells in each well (×10^5) after each time period was determined by the NucleoCassette method by the NucleoCounter (ChemoMetec A/S Denmark).
The number of cells was investigated by lysis of the cells in “Reagent A” having a pH of 1.25 following stabilization by “Reagent B”. In the NucleoCassette, propidium iodide was incorporated which targets the amount of released DNA. The cassette was placed in the NucleoCounter and the amount of measured fluorochrome corresponded to the amount of DNA. The instructions from the manufacturer were followed (Chemometec A/S, Denmark).

MG-63 cells [3] = assay: Production of alkaline phosphatase (ALP) by MG-63 cells with Sr(NO3)2 added to the wells
Procedure: MG-63 is a human cell line (ATCC No CRL-1427, U.S.) conventionally used in the art for in vitro studies of osteoblasts.
In this study, MG-63 cells were obtained from frozen cells in second passage and further cultured in Dulbecco's modified Eagle's medium (DMEM) containing FCS 5%, PEST 1%, Gibco, UK) in 37° C. in an atmosphere of 5% CO2 and 100% humidity. When the cells reached confluence they were subcultured by the use of 0.05% Trypsin-EDTA (Gibco, UK) until the amount of cells were obtained.
In order to study the effect of strontium on the production of alkaline phosphatase (ALP), MG-63 cells prepared in reference example 1 were subcultured into 24 well plates at a plating density of 10 000 cells/cm^2, in total 20 000 cells/well. Sterile filtered Sr(NO3)2 at final concentrations of 10 mM, 5 mM, 3 mM, and 1 mM respectively (pH 5.2) were added to the respective wells of the plate. Untreated cells were used as controls. Cells were cultured for 3, 7 and 14 days at a temperature of 37° C. in an atmosphere of 5% CO2 and 100% humidity.
as §1

O=[N+]([O-])[O-].O=[N+]([O-])[O-].[Sr+2] [strontium, Sr(NO3)2]
production of ALP compared with unstimulated reference surfaces 1 and 2 (MG-63 cells [1]): increased production of ALP
MG-63 cell proliferation, rank (MG-63 cells [2]): highest MG-63 cell proliferation
amount of ALP, rank among concentrations (MG-63 cells [3]; 3 mM strontium, after 14 days of culturing): highest amount of ALP
production of ALP compared to control (MG-63 cells [3]; after 7 days of culture): small increase
ALP levels compared to control (MG-63 cells [3]; after 14 days, especially at Sr concentrations 1 mM and 3 mM): remarkably increased
production of ALP compared to control (unstimulated cells) (MG-63 cells [3]; initially (3 days), all strontium concentrations (1, 3, 5, 10 mM), polystyrene): initially slow
